Laboratory results reported in patent publication US20250073185A1, “Composition Including Benzylaminoethanol Derivative as Active Ingredient for Prevention or Treatment of Metabolic Disease” (JLBIOTHERAPEUTICS, priority 2021, published 2025).

Test system: 3T3-L1 cells
Test: Cytotoxicity measurement (WST assay, EZ-Cytox)
Format: cell-based
Conditions: 3T3-L1 cells, 0.1, 1, 5, 10 and 25 μM, 48 hours
Procedure: After 48 hours, 10 μl of EZ-Cytox was added to each cell culture which was then incubated for 30 minutes, and the absorbance at 450 nm was measured using a microplate reader.

SMILES: OCCNCc1cc(Br)ccc1OCc1ccc(F)c(C(F)(F)F)c1 [AZ1, 2-(5-bromo-2-(4-fluoro-3-(trifluoromethyl)benzyloxy)benzylamino)ethanol]
- cytotoxicity (cell viability vs untreated cells): did not exhibit cytotoxicity
